Laboratory results from patent US9609868B2, “Alkoximino-substituted anthranilic acid diamides as pesticides” (BAYER CROPSCIENCE AKTIENGESELLSCHAFT, priority 2013, dated 2017).

Legend:
Boophilus microplus = Boophilus microplus - injection test (BOOPMI Inj); assay type: in vivo; settings: application rate 20 μg/animal, injection into engorged adult female cattle ticks
Procedure: Boophilus microplus—Injection Test (BOOPMI Inj)
(§1) Solvent: dimethyl sulfoxide
To produce a suitable preparation of active compound, 10 mg of active compound are mixed with 0.5 ml of solvent and the concentrate is diluted with solvent to the desired concentration.
1 μl of the active compound solution is injected into the abdomen of 5 engorged adult female cattle ticks (Boophilus microplus). The animals are transferred into dishes and kept in a climate-controlled room.
The activity is assessed after the desired time by laying of fertile eggs. Eggs which are not visibly fertile are stored in a climate-controlled cabinet until the larvae hatch after about 42 days. An efficacy of 100% means that none of the ticks has laid any fertile eggs; 0% means that all the eggs are fertile.

Musca domestica = Musca domestica test (MUSCDO); assay type: in vivo
Procedure: Musca domestica-Test (MUSCDO)
as §1
(§2) To produce a suitable preparation of active compound, 10 mg of active compound are mixed with 0.5 ml of dimethyl sulfoxide, and the concentrate is diluted with water to the desired concentration.
Vessels containing a sponge treated with sugar solution and the active compound preparation of the desired concentration are populated with 10 adult houseflies (Musca domestica).
After the desired time, the kill in % is determined. 100% means that all of the flies have been killed; 0% means that none of the flies have been killed.

[1] = log P by HPLC on reversed-phase column (C18), EEC directive 79/831 Annex V.A8; assay type: physicochemical; settings: HPLC reversed-phase C18, 43° C., data refer to the E isomer
Procedure: The log P values reported in the tables and Preparation Examples above were determined in accordance with EEC directive 79/831 Annex V.A8 by HPLC (High Performance Liquid Chromatography) using a reversed-phase column (C18). Temperature 43° C. The calibration is effected with unbranched alkan-2-ones (having 3 to 16 carbon atoms), for which the log P values are known.

Myzus persicae = Myzus persicae - spray test (MYZUPE); assay type: in vivo; settings: application rate 100 g/ha, Chinese cabbage leaf disks
Summary of the method: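 Chinese cabbage leaf disks carrying all stages of green peach aphid were sprayed with compound in acetone/DMF with emulsifier, diluted in water. After the chosen period, efficacy was scored as % aphids killed.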

Phaedon cochleariae = Phaedon cochleariae - spray test (PHAECO); assay type: in vivo; settings: application rate 100 g/ha, Chinese cabbage leaf disks
Summary of the method: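 Active compound in acetone/dimethylformamide with alkylaryl polyglycol ether emulsifier was diluted with emulsifier-containing water to the test concentration and sprayed. After the set period, efficacy was scored as % larvae killed (100% = all beetle larvae dead, 0% = none).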

Lucilia cuprina = Lucilia cuprina test (LUCICU); assay type: in vivo; settings: application rate 100 ppm
Procedure: Lucilia cuprina-Test (LUCICU)
as §1, §2
About 20 L1 larvae of the Australian sheep blowfly (Lucilia cuprina) are transferred into a test vessel containing minced horsemeat and the active compound preparation of the desired concentration.
After the desired time, the kill in % is determined. 100% means that all the larvae have been killed; 0% means that no larvae have been killed.

Spodoptera frugiperda = Spodoptera frugiperda - spray test (SPODFR); assay type: in vivo; settings: application rate 100 g/ha, maize leaf disks
Summary of the method: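 Maize leaf disks sprayed with compound in acetone/DMF with alkylaryl polyglycol ether emulsifier, diluted in water to test concentration, then infested with armyworm caterpillars once dry. Efficacy given as % caterpillars killed (100% all, 0% none) after the chosen period.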

Tetranychus urticae = Tetranychus urticae - spray test, OP-resistant (TETRUR); assay type: in vivo; settings: application rate 100 g/ha, bean leaf disks
Procedure: Tetranychus urticae—Spray Test, OP-Resistant (TETRUR)
Solvent: 78.0 parts by weight of acetone • • 1.5 parts by weight of dimethylformamide
Emulsifier: 0.5 parts by weight of alkylaryl polyglycol ether
To produce a suitable active compound preparation, 1 part by weight of active compound is mixed with the stated amounts of solvent and emulsifier, and the concentrate is diluted with emulsifier-containing water to the desired concentration.
Disks of bean leaves (Phaseolus vulgaris) infested with all stages of the greenhouse red spider mite (Tetranychus urticae) are sprayed with an active compound preparation of the desired concentration.
After the desired period of time, the efficacy in % is determined. 100% means that all the spider mites have been killed; 0% means that none of the spider mites have been killed.

SMILES | efficacy (no fertile eggs laid) (Boophilus microplus) [%] | efficacy (kill of adult houseflies) (Musca domestica; application rate 100 ppm) [%] | log p ([1]; Table A) | efficacy (aphids killed) (Myzus persicae) [%] | efficacy (beetle larvae killed) (Phaedon cochleariae) [%] | efficacy (kill of L1 larvae) (Lucilia cuprina) [%] | efficacy (caterpillars killed) (Spodoptera frugiperda) [%] | efficacy (kill of adult houseflies) (Musca domestica; application rate 20 ppm) [%] | efficacy (spider mites killed) (Tetranychus urticae) [%] | log p ([1]; Table C)
CON=Cc1cc(C)c(NC(=O)c2cc(C(F)F)nn2-c2ncccc2Cl)c(C(=O)NN(C)C(=O)OC)c1 (mixture of isomers) [A-41] | 100 | 80 | 2.46 | 90 | 100 | 100 | 100 | – | – | –
CON=Cc1cc(C)c(NC(=O)c2cc(Br)nn2-c2ncccc2Cl)c(C(=O)NNC(=O)OC)c1 (mixture of isomers) [A-42] | 100 | 80 | 2.38 | 100 | 100 | 100 | 100 | – | – | –
CCOC(=O)NNC(=O)c1cc(C=NOC)cc(C)c1NC(=O)c1cc(C(F)(F)F)nn1-c1ncccc1Cl [A-17] | 100 | – | 2.92 | 90 | 100 | 100 | 100 | 80 | 90 | –
C#CCOC(=O)NNC(=O)c1cc(C=NOC)cc(C)c1NC(=O)c1cc(C(F)(F)F)nn1-c1ncccc1Cl [A-22] | 100 | – | 2.86 | 100 | 100 | 100 | 100 | 100 | 100 | –
CON=Cc1cc(C)c(NC(=O)c2cc(OC)nn2-c2ncccc2Cl)c(C(=O)NC(C)C)c1 [C-24] | 100 | 100 | – | 100 | 100 | 100 | 100 | – | – | 2.65
CNC(=O)c1cc(C=NOC)cc(C)c1NC(=O)c1cc(C(F)F)nn1-c1ncccc1Cl [C-28] | 100 | 80 | – | 90 | 100 | 100 | 100 | – | – | 2.48
CON=Cc1cc(C)c(NC(=O)c2cc(C(F)F)nn2-c2ncccc2Cl)c(C(=O)NC(C)C)c1 [C-29] | 100 | – | – | 100 | 100 | 100 | 100 | 100 | – | 2.98
CON=Cc1cc(C)c(NC(=O)c2cc(CF)nn2-c2ncccc2Cl)c(C(=O)NC2CC2)c1 [C-42] | 100 | 90 | – | 90 | 100 | 100 | 100 | – | 100 | 2.38
